{"source": "paper PMC8465649", "about": "“Semaphorin 3A—Glycosaminoglycans Interaction as Therapeutic Target for Axonal Regeneration” (Pharmaceuticals, 2021)", "test_system": "SCTWT–heparin interaction", "assay": "2D 1H-15N HSQC CSP: displacement of SCTWT from dp14 heparin", "assay_type": "binding, human", "conditions": "0.2 mM SCTWT, 0.05 mM dp14 heparin, 4 mM CSIC02, pH 4.5", "procedure": "NMR competition experiments involved the acquisition of 1D-^1H WaterLOGSY or spin-lock filtered NMR spectra. Thus, FS2 peptide is displaced from heparin agarose resin by CSIC02 (1:1 peptoid/FS2, both 1 mM), but not by CSIC03 (Figure S15). […] We reasoned that if CSIC02 was able to interact with GAG and displace FS2/FS3 basic peptides, it may also interfere with SCTWT–heparin interaction. To investigate if CSIC02 could displace SCTWT from heparin dp14 and to define the SCTWT residues affected, 2D NMR ^1H-^15N HSQC CSP experiments were used. Figure 8a illustrates the chemical shift effects of CSIC02 addition to a sample of SCTWT containing dp14 heparin. […] In Figure 8b, we display the chemical shift perturbation of SCTWT NMR spectra in the presence of dp14 and CSIC02. Thus, as the two CSP plots in Figure 4b and Figure 8b were calculated using as reference SCTWT alone in solution, we can compare them directly. […]\nFigure 8 (a) Overlay of [^1H-^15N]-HSQC spectra of 0.2 mM Sema3A C-terminal region (orange) highlighting the changes of 0.05 mM (or 0.35 mM in disaccharide units) dp14 heparin oligosaccharide binding in the absence (purple) and the presence (turquoise) of 4 mM CSIC02. […] The absolute values of the chemical shift differences between the presence and absence of dp14 are plotted in ppm and calculated comparing with the chemical shifts of the protein alone. […]"}
{"compound": "CCN(CC)CCN(CC(=O)N(CCN1CCCC1)CC(=O)N(CCC1CCCN1C)CC(N)=O)C(=O)OCc1ccccc1", "note": "(stereo not shown) [CSIC02]", "values": [{"measurement": "effect on dp14 heparin-induced chemical shift perturbations of SCTWT", "value": "modest decrease in dp14-induced perturbations"}]}
